Source: patent US20210268030A1, “FIBROADIPOGENIC PROGENITOR-DERIVED EXOSOMES FOR REGENERATION OF DYSTROPHIC MUSCLES” (EXOFIX S.R.L., priority 2018, published 2021)

What was measured:
[1] = test system: MuSCs within single fibres; experiment: Single muscle fibres incubated with FAP conditioned media or exosomes (Pax7, MyoD, EdU); type: cell-based, C57BL6J-WT mice
Method: Single fibers were isolated using Pasut (2013) and Moyle's protocol (2014) from tibialis anterior, extensor digitorum longus, gastrocnemius and soleus muscles of C57BL6J-WT mice and cultured in proliferating medium (GM1: DMEM+pyruvate+4.5 g/l glucose+glutamate, 10% horse serum (HS), 0.5% Chicken Embryo Extract) for 24 hours, then exposed for the next 24 hrs to GM1 conditioned media derived from culture of FAPs (MEDIA-FAPs) isolated from young mdx mouse treated for 15 days with vehicle (CTR) or mdx mice treated with TSA (TSA) or media isolated from FAPs CTR and TSA pre-treated with the GW4869 to inhibit exosome biogenesis. In a parallel, independent experiment, single fibers were exposed to exosomes (EXO-FAPs) purified from MEDIA-FAPs and added to GM1 for 24 hours.
In ex-vivo experiments FAP-derived Exosomes (10·g) isolated by TEIR were put in culture with MuSCs or with myofibers in the cell culture media.
To investigate this hypothesis, we evaluated the effect of FAP-derived exosomes from HDACi-treated or control-treated mdx mice on MuSCs within single fibres isolated from WT mice. Freshly isolated single muscle fibres from tibialis anterior, extensor digitorum longus, gastrocnemius and soleus of C57BL6J mice were incubated with FAP-derived exosomes or whole conditioned media, and their effect on MuSCs was evaluated by monitoring the expression of Pax7, MyoD and DNA synthesis (EdU incorporation). In this experimental setting, the uptake of FAP-derived exosomes by MuSCs from single fibers was first confirmed by staining of lipidic dye PKH-67 used on purified vesicles (FIG. 6B).

MuSCs [2] = experiment: PKH-67 tracing of exosome transfer from FAPs to MuSCs in transwell co-culture; type: cell-based, mdx mice; conditions: PKH67-labelled FAPs exposed to GW4869
Method: To stain FAPs derived exosomes, FAP cells were incubated with the lipidic dye PKH-67 (#P7333, Sigma) according to manufacturer instructions prior to transwell co-culture with MuSCs.
To analyse the capacity of MuSCs to uptake FAP-derived exosomes, we performed a transwell co-culture in which the potential “source” of exosomes—FAPs—was […] prior to transwell co-culture with the “acceptor” cells—MuSCs. […] PKH-67 is incorporated into newly generated exosomes, and therefore traces their passage to acceptor cells.

MuSCs [3] = experiment: Transwell co-culture of FAPs with MuSCs, myogenic differentiation (fusion index); type: cell-based, mdx mice; conditions: FAPs exposed to GW4869 (10 uM) before transwell co-culture
Method: MuSCs and FAP cells were co-cultured by using inserts with 1.0 μm porous membrane to avoid direct contact between populations.
Cell culture inserts with 1.0-·m pore (#353102, #353104, Falcon) and 6 or 24 -well culture plates (BD Bioscience) were used for transwell co-culture. Freshly sorted MuSCs were plated in the bottom of the plate, while FAP cells were plated on the upper insert.
To decrease FAP-exosomes release, GW4869 (10 uM, #D1692, Sigma) was added to FAPs culture 30′ before the co-culture setting with MuSCs. To wash away any residual trace of GW4869, FAPs media was refreshed right before co-culture.
For Drosha SiRNA treatments, in vivo TSA treated FAPs on transwell were transfected with commercially available Drosha siRNA using Dharmafect3.0 (Dharmacon) according to manufacturer instructions; after 6 hours FAPs were put in co-culture with MuSCs.
We began to determine the identity of the extracellular mediators of FAP's support to MuSCs in DMD muscles, by performing transwell co-cultures between FAPs isolated from 1.5 month old mdx mice and MuSCs isolated from age-matched mdx mice. In transwell cultures, cells are separated by a membrane of 1 μm pore size that prevents direct cell contact, yet allows reciprocal transfer of soluble mediators of functional interactions between co-cultured cells.

[4] = test system: animals affected by muscular dystrophy; conditions: in vivo; cited from earlier work
muscles of DMD patients = conditions: phase I/II clinical trial, after one year of treatment; cited from earlier work
preclinical model of DMD = conditions: Colussi et al. 2010; cited from earlier work
[5] = supernatant of FAPs from control-treated mdx mice pre-exposed to GW4869

O=C(/C=C/c1ccc(/C=C/C(=O)Nc2ccc(C3=NCCN3)cc2)cc1)Nc1ccc(C2=NCCN2)cc1 [GW4869]
ability of the whole supernatant to increase all MuSC populations as well as their proliferation ([1]; GW4869 treatment of FAPs from TSA-treated mdx mice): drastically reduced
number of Pax7+/MyoD+ MuSCs with high DNA synthesis (Edu+) [1, 5]: not altered
number of quiescent (Pax7+MyoD−) and differentiation-committed (Pax7- MyoD+) MuSCs [1, 5]: drastic reduction
prevention of detection of the PKH-67 signal in MuSCs co-cultured with FAPs (MuSCs [2]): more than 80%
FAP's ability to enhance MuSCs differentiation into multinucleated myotubes (MuSCs [3]): abrogated

CCN(CC)Cc1ccc2cc(COC(=O)Nc3ccc(C(=O)NO)cc3)ccc2c1 [Givinostat]
activity in the treatment of animals affected by muscular dystrophy [4]: active
histology of the muscles of DMD patients (muscles of DMD patients): positively affect

Nc1ccccc1NC(=O)c1ccc(CNC(=O)OCc2cccnc2)cc1 [MS-275]
activity in the treatment of animals affected by muscular dystrophy [4]: active

O=C(CCCCCCC(=O)Nc1ccccc1)NO [Vorinostat]
activity in the treatment of animals affected by muscular dystrophy [4]: active
dose response curve (preclinical model of DMD): bell-shaped
